According to US20230114728A1 (Venatorx Pharmaceuticals, Inc., priority 2019, published 2023):
Converted amounts (≈) assume the structure as drawn.

What was measured:
Format in all cases: cell-based
[1] = test system: K. pneumoniae 848844 producing SHV-11 and KPC-2; assay: Broth microdilution MIC in CAMHB; conditions: Klebsiella pneumoniae, read-out: Minimum Inhibitory Concentration, K. pneumoniae 848844
In short: (§1)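 Per CLSI broth microdilution, colonies were grown 3-5 h at 37° C in cation-adjusted Mueller Hinton broth, then diluted to a starting inoculum of 2-8×10^5 CFU/mL against 2-fold serial compound dilutions. Plates were incubated 16-20 h at 37° C, and MIC was read visually as the lowest concentration with no growth.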

[2] = test system: K. pneumoniae UMM producing SHV-5 and KPC-2; assay: Broth microdilution MIC in CAMHB; conditions: Klebsiella pneumoniae, read-out: Minimum Inhibitory Concentration, K. pneumoniae UMM
In short: as §1

A. baumannii ATCC 19606 = assay: Broth microdilution MIC in CAMHB; conditions: Acinetobacter baumannii, ATCC19606; MHB; read-out: Minimum Inhibitory Concentration, A. baumannii ATCC 19606
In short: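 Colonies from cation-adjusted Mueller Hinton agar are grown in broth (3-5 h, 37° C), adjusted by OD600, and added at 2-8×10^5 CFU/mL to 2-fold compound dilutions. After 16-20 h at 37° C, the lowest concentration without growth is taken as MIC.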

[3] = test system: P. aeruginosa (ΔmexAB-oprM); assay: Broth microdilution MIC in CAMHB; conditions: Pseudomonas aeruginosa, read-out: Minimum Inhibitory Concentration, P. aeruginosa ΔmexAB-OprM
In short: as §1

E. coli 901C = assay: Broth microdilution MIC in CAMHB; conditions: Escherichia coli; E. coli 901C (hyper-permeable); MHB; read-out: Minimum Inhibitory Concentration, E. coli 901C
In short: as §1

P. aeruginosa ATCC 35151 = assay: Broth microdilution MIC in CAMHB; conditions: Pseudomonas aeruginosa, ATCC35151; MHB; hyper-permeable strain; read-out: Minimum Inhibitory Concentration, P. aeruginosa ATCC 35151
In short: as §1

P. aeruginosa ATCC 27853 = assay: Broth microdilution MIC in CAMHB; conditions: Pseudomonas aeruginosa, ATCC27853; MHB; read-out: Minimum Inhibitory Concentration, P. aeruginosa ATCC 27853
In short: as §1

E. coli AG100A = assay: Broth microdilution MIC in CAMHB; conditions: Escherichia coli, read-out: Minimum Inhibitory Concentration, E. coli AG100A
In short: as §1

E. coli AG100 = assay: Broth microdilution MIC in CAMHB; conditions: Escherichia coli; E. coli AG100 (wild-type parent); MHB; read-out: Minimum Inhibitory Concentration, E. coli AG100
In short: as §1

[4] = test system: K. pneumoniae SI-117 producing VIM-1; assay: Broth microdilution MIC in CAMHB; conditions: Klebsiella pneumoniae, read-out: Minimum Inhibitory Concentration, K. pneumoniae SI-117
In short: as §1

E. coli ATCC 25922 = assay: Broth microdilution MIC in CAMHB; conditions: Escherichia coli, ATCC25922; E. coli ATCC 25922; MHB; read-out: Minimum Inhibitory Concentration, E. coli 25922
In short: as §1

E. coli D22 = assay: Broth microdilution MIC in CAMHB; conditions: Escherichia coli; E. coli D22 (hyper-permeable); MHB; read-out: Minimum Inhibitory Concentration, E. coli D22
In short: as §1

N. gonorrhoeae WHO Z = assay: Liquid broth MIC in Fastidious broth; conditions: Neisseria gonorrhoeae, read-out: Minimum Inhibitory Concentration, N. gonorrhoeae WHO Z
In short: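 Broth microdilution against gonococcal strains expressing mosaic PBP2, starting inoculum 5×10^5 CFU/mL in Fastidious broth. Incubation runs ~24 h at 36 °C under 5% CO2, with MIC scored visually at <10% of full growth.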

SMILES	MIC [1] [µg/mL]	MIC [2] [µg/mL]	MIC (A. baumannii ATCC 19606) [µg/mL]	MIC [3] [µg/mL]	MIC (E. coli 901C) [µg/mL]	MIC (P. aeruginosa ATCC 35151) [µg/mL]	MIC (P. aeruginosa ATCC 27853) [µg/mL]	MIC (E. coli AG100A) [µg/mL]	MIC (E. coli AG100) [µg/mL]	MIC [4] [µg/mL]	MIC (E. coli ATCC 25922) [µg/mL]	MIC (E. coli D22) [µg/mL]	MIC (N. gonorrhoeae WHO Z) [µg/mL]
CCN1CCN(C(=O)N[C@@H](C(=O)N[C@H]2Cc3cccc(C(=O)O)c3OB2O)c2cc(O)cc(O)c2)C(=O)C1=O (single isomer, unassigned) [Example 82]	> 128	32 to 64 (≈ 59.2 to 118 µM)	32 to 64 (≈ 59.2 to 118 µM)	32 to 64 (≈ 59.2 to 118 µM)	< 0.25	< 0.25	> 128	2 to 4 (≈ 3.7 to 7.4 µM)	8 to 16 (≈ 14.8 to 29.6 µM)	32 to 64 (≈ 59.2 to 118 µM)	32 to 64 (≈ 59.2 to 118 µM)	2 to 4 (≈ 3.7 to 7.4 µM)	4 to 8 (≈ 7.4 to 14.8 µM)
NCCN1CCN(C(=O)N[C@@H](C(=O)N[C@H]2Cc3cccc(C(=O)O)c3OB2O)c2ccc(O)cc2F)C(=O)C1=O (single isomer, unassigned) [Example 89]	32 to 64 (≈ 57.4 to 115 µM)	32 to 64 (≈ 57.4 to 115 µM)	> 128	8 to 16 (≈ 14.4 to 28.7 µM)	2 to 4 (≈ 3.59 to 7.18 µM)	0.5 to 1 (≈ 0.897 to 1.79 µM)	> 128	2 to 4 (≈ 3.59 to 7.18 µM)	32 to 64 (≈ 57.4 to 115 µM)	32 to 64 (≈ 57.4 to 115 µM)	32 to 64 (≈ 57.4 to 115 µM)	8 to 16 (≈ 14.4 to 28.7 µM)	> 64
NCCN1CCN(C(=O)N[C@H](C(=O)N[C@H]2Cc3cccc(C(=O)O)c3OB2O)c2ccc(C(=O)O)cc2)C(=O)C1=O (single isomer, unassigned) [Example 83]	> 128	32 to 64 (≈ 56.4 to 113 µM)	> 128	8 to 16 (≈ 14.1 to 28.2 µM)	< 0.25	0.5 to 1 (≈ 0.881 to 1.76 µM)	32 to 64 (≈ 56.4 to 113 µM)	8 to 16 (≈ 14.1 to 28.2 µM)	32 to 64 (≈ 56.4 to 113 µM)	> 128	32 to 64 (≈ 56.4 to 113 µM)	2 to 4 (≈ 3.53 to 7.05 µM)	> 64
CCN1CCN(C(=O)NC(C(=O)N[C@H]2Cc3cccc(C(=O)O)c3OB2O)c2cccc(NS(C)(=O)=O)c2)C(=O)C1=O (stereo partly drawn) [Example 76, (3R)-3-(2-(4-ethyl-2,3-dioxopiperazine-1-carboxamido)-2-(3-(methylsulfonamido)phenyl)acetamido)-2-hydroxy-3,4-dihydro-2H-benzo[e][1,2]oxaborinine-8-carboxylic acid]	> 128	32 to 64 (≈ 53.2 to 106 µM)	> 128	8 to 16 (≈ 13.3 to 26.6 µM)	< 0.25	2 to 4 (≈ 3.33 to 6.65 µM)	> 128	2 to 4 (≈ 3.33 to 6.65 µM)	8 to 16 (≈ 13.3 to 26.6 µM)	> 128	32 to 64 (≈ 53.2 to 106 µM)	2 to 4 (≈ 3.33 to 6.65 µM)	> 64
NCCN1CCN(C(=O)N[C@@H](C(=O)N[C@H]2Cc3cccc(C(=O)O)c3OB2O)c2ccc(C(=O)O)cc2)C(=O)C1=O (single isomer, unassigned) [Example 84]	32 to 64 (≈ 56.4 to 113 µM)	8 to 16 (≈ 14.1 to 28.2 µM)	> 128	8 to 16 (≈ 14.1 to 28.2 µM)	0.5 to 1 (≈ 0.881 to 1.76 µM)	0.5 to 1 (≈ 0.881 to 1.76 µM)	32 to 64 (≈ 56.4 to 113 µM)	2 to 4 (≈ 3.53 to 7.05 µM)	8 to 16 (≈ 14.1 to 28.2 µM)	> 128	8 to 16 (≈ 14.1 to 28.2 µM)	2 to 4 (≈ 3.53 to 7.05 µM)	16 to 32 (≈ 28.2 to 56.4 µM)
CCN1CCN(C(=O)NC(C(=O)N[C@H]2Cc3cccc(C(=O)O)c3OB2O)c2cccc(N)c2)C(=O)C1=O (stereo partly drawn) [Example 72, (3R)-3-(2-(3-aminophenyl)-2-(4-ethyl-2,3-dioxopiperazine-1-carboxamido)acetamido)-2-hydroxy-3,4-dihydro-2H-benzo[e][1,2]oxaborinine-8-carboxylic acid]	> 128	32 to 64 (≈ 61.1 to 122 µM)	> 128	8 to 16 (≈ 15.3 to 30.6 µM)	< 0.25	2 to 4 (≈ 3.82 to 7.64 µM)	> 128	2 to 4 (≈ 3.82 to 7.64 µM)	32 to 64 (≈ 61.1 to 122 µM)	> 128	32 to 64 (≈ 61.1 to 122 µM)	2 to 4 (≈ 3.82 to 7.64 µM)	16 to 32 (≈ 30.6 to 61.1 µM)
CCN1CCN(C(=O)NC(C(=O)N[C@H]2Cc3cccc(C(=O)O)c3OB2O)c2ccc(O)cc2O)C(=O)C1=O (stereo partly drawn) [Example 69, (3R)-3-(2-(2,4-dihydroxyphenyl)-2-(4-ethyl-2,3-dioxopiperazine-1-carboxamido)acetamido)-2-hydroxy-3,4-dihydro-2H-benzo[e][1,2]oxaborinine-8-carboxylic acid]	32 to 64 (≈ 59.2 to 118 µM)	32 to 64 (≈ 59.2 to 118 µM)	> 128	32 to 64 (≈ 59.2 to 118 µM)	< 0.25	8 to 16 (≈ 14.8 to 29.6 µM)	> 128	2 to 4 (≈ 3.7 to 7.4 µM)	32 to 64 (≈ 59.2 to 118 µM)	32 to 64 (≈ 59.2 to 118 µM)	32 to 64 (≈ 59.2 to 118 µM)	2 to 4 (≈ 3.7 to 7.4 µM)	16 to 32 (≈ 29.6 to 59.2 µM)
